{"source": "ChEMBL document CHEMBL1131741", "about": "“Design of scytalone dehydratase inhibitors as rice blast fungicides: (N-phenoxypropyl)-carboxamides” (Bioorg Med Chem Lett, 1999)", "key": {"[1]": {"system": "rice", "experiment": "Concentration that affords 90% control of blast disease on rice plants by multiple rate foliar rice blast assay", "format": "functional"}, "[2]": {"target": "T1, Scytalone dehydratase (Magnaporthe oryzae (strain 70-15 / FGSC 8958) (Rice blast fungus)(Pyricularia oryzae), UniProt P56221)", "T1 sequence (P56221 whole entry)": "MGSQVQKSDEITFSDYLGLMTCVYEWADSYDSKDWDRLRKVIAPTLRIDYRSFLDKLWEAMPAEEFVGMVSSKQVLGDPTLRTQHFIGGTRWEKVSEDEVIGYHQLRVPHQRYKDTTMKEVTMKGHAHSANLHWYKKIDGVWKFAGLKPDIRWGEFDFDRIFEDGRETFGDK"}, "[3]": {"target": "T1, Scytalone dehydratase", "remark": "listed apart in the source"}}, "data": [{"smiles": "CC(COc1ccccc1F)NC(=O)C(C#N)C(C)(C)C", "note": "(stereo not given)", "values": [{"measurement": "ED90", "setting": "[1]", "value": 50, "unit": "mg/L"}, {"measurement": "Ki", "setting": "[2]", "value": 0.24, "unit": "nM"}, {"measurement": "Adjusted Ki", "setting": "[3]", "value": 0.059, "unit": "nM"}]}, {"smiles": "C[C@H](COc1ccccc1)NC(=O)c1cc(F)ccc1O", "values": [{"measurement": "Ki", "setting": "[2]", "value": 0.44, "unit": "nM"}]}, {"smiles": "CC(COc1cccc(F)c1)NC(=O)[C@@H](C#N)C(C)(C)C", "note": "(stereo not given in full)", "values": [{"measurement": "ED90", "setting": "[1]", "value": 25, "unit": "mg/L"}, {"measurement": "Ki", "setting": "[2]", "value": 0.46, "unit": "nM"}, {"measurement": "Adjusted Ki", "setting": "[3]", "value": 0.23, "unit": "nM"}]}, {"smiles": "CC[C@]1(C(=O)NC(C)CCc2ccccc2)C(C)C1(Cl)Cl", "note": "(stereo not given in full)", "values": [{"measurement": "ED90", "setting": "[1]", "value": 30, "unit": "mg/L"}, {"measurement": "Ki", "setting": "[2]", "value": 0.83, "unit": "nM"}, {"measurement": "Adjusted Ki", "setting": "[3]", "value": 0.21, "unit": "nM"}]}, {"smiles": "C[C@H](COc1ccccc1)NC(=O)[C@H](C#N)C(C)(C)C", "values": [{"measurement": "ED90", "setting": "[1]", "value": "> 200", "unit": "mg/L"}, {"measurement": "Ki", "setting": "[2]", "value": 66, "unit": "nM"}, {"measurement": "Adjusted Ki", "setting": "[3]", "value": 33, "unit": "nM"}]}, {"smiles": "CC[C@]1(C(=O)N[C@H](C)COc2cccc(F)c2)C(C)C1(Cl)Cl", "note": "(stereo not given in full)", "values": [{"measurement": "ED90", "setting": "[1]", "value": 30, "unit": "mg/L"}, {"measurement": "Ki", "setting": "[2]", "value": 0.11, "unit": "nM"}, {"measurement": "Adjusted Ki", "setting": "[3]", "value": 0.057, "unit": "nM"}]}, {"smiles": "CC[C@]1(C(=O)NCCOc2ccccc2)C(C)C1(Cl)Cl", "note": "(stereo not given in full)", "values": [{"measurement": "ED90", "setting": "[1]", "value": 200, "unit": "mg/L"}, {"measurement": "Ki", "setting": "[2]", "value": 7.5, "unit": "nM"}, {"measurement": "Adjusted Ki", "setting": "[3]", "value": 3.7, "unit": "nM"}]}, {"smiles": "C[C@H](COc1ccccc1)NC(=O)[C@@H](C#N)C(C)(C)C", "note": "(stereo in doubt; 6f) [listing 1 of 2 here]", "values": [{"measurement": "Ki", "setting": "[2]", "value": 0.58, "unit": "nM"}, {"measurement": "Adjusted Ki", "setting": "[3]", "value": 0.58, "unit": "nM"}]}, {"smiles": "CC(C)(C)C(C#N)C(=O)NCCCc1ccccc1", "note": "(stereo not given)", "values": [{"measurement": "ED90", "setting": "[1]", "value": 200, "unit": "mg/L"}, {"measurement": "Ki", "setting": "[2]", "value": 13.6, "unit": "nM"}, {"measurement": "Adjusted Ki", "setting": "[3]", "value": 6.8, "unit": "nM"}]}, {"smiles": "CC[C@]1(C(=O)N[C@H](C)COc2ccccc2F)C(C)C1(Cl)Cl", "note": "(stereo not given in full)", "values": [{"measurement": "ED90", "setting": "[1]", "value": 50, "unit": "mg/L"}, {"measurement": "Ki", "setting": "[2]", "value": 0.37, "unit": "nM"}, {"measurement": "Adjusted Ki", "setting": "[3]", "value": 0.19, "unit": "nM"}]}, {"smiles": "CC[C@]1(C(=O)N[C@H](C)COc2ccc(F)cc2)C(C)C1(Cl)Cl", "note": "(stereo not given in full)", "values": [{"measurement": "ED90", "setting": "[1]", "value": 30, "unit": "mg/L"}, {"measurement": "Ki", "setting": "[2]", "value": 0.22, "unit": "nM"}, {"measurement": "Adjusted Ki", "setting": "[3]", "value": 0.11, "unit": "nM"}]}, {"smiles": "C[C@H](COc1ccccc1)NC(=O)[C@@H](C#N)C(C)(C)C", "note": "(stereo in doubt; 6e) [listing 1 of 2 here]", "values": [{"measurement": "ED90", "setting": "[1]", "value": 100, "unit": "mg/L"}]}, {"smiles": "C[C@H](COc1cc(F)ccc1F)NC(=O)[C@H](C#N)C(C)(C)C", "values": [{"measurement": "ED90", "setting": "[1]", "value": 6.2, "unit": "mg/L"}, {"measurement": "Ki", "setting": "[2]", "value": 0.73, "unit": "nM"}, {"measurement": "Adjusted Ki", "setting": "[3]", "value": 0.73, "unit": "nM"}]}, {"smiles": "C[C@H](COc1ccc(F)cc1)NC(=O)C(C#N)C(C)(C)C", "note": "(stereo not given in full)", "values": [{"measurement": "ED90", "setting": "[1]", "value": 100, "unit": "mg/L"}, {"measurement": "Ki", "setting": "[2]", "value": 1.7, "unit": "nM"}, {"measurement": "Adjusted Ki", "setting": "[3]", "value": 0.83, "unit": "nM"}]}, {"smiles": "C[C@H](COc1ccccc1)NC(=O)[C@@H](C#N)C(C)(C)C", "note": "(stereo in doubt; 6f) [listing 2 of 2 here]", "values": [{"measurement": "ED90", "setting": "[1]", "value": 25, "unit": "mg/L"}]}, {"smiles": "CC[C@]1(C(=O)N[C@H](C)COc2ccccc2)C(C)C1(Cl)Cl", "note": "(stereo not given in full)", "values": [{"measurement": "ED90", "setting": "[1]", "value": 30, "unit": "mg/L"}, {"measurement": "Ki", "setting": "[2]", "value": 0.17, "unit": "nM"}, {"measurement": "Adjusted Ki", "setting": "[3]", "value": 0.0835, "unit": "nM"}]}, {"smiles": "C[C@H](COc1cc(F)ccc1F)NC(=O)[C@@H](C#N)C(C)(C)C", "values": [{"measurement": "ED90", "setting": "[1]", "value": 0.8, "unit": "mg/L"}, {"measurement": "Ki", "setting": "[2]", "value": 0.02, "unit": "nM"}, {"measurement": "Adjusted Ki", "setting": "[3]", "value": 0.02, "unit": "nM"}]}, {"smiles": "CC[C@]1(C(=O)N[C@H](C)COc2cccc(F)c2F)C(C)C1(Cl)Cl", "note": "(stereo not given in full)", "values": [{"measurement": "ED90", "setting": "[1]", "value": 100, "unit": "mg/L"}, {"measurement": "Ki", "setting": "[2]", "value": 2.2, "unit": "nM"}, {"measurement": "Adjusted Ki", "setting": "[3]", "value": 2.2, "unit": "nM"}]}, {"smiles": "C[C@H](COc1cccc(F)c1F)NC(=O)[C@@H](C#N)C(C)(C)C", "values": [{"measurement": "ED90", "setting": "[1]", "value": 25, "unit": "mg/L"}, {"measurement": "Ki", "setting": "[2]", "value": 0.95, "unit": "nM"}, {"measurement": "Adjusted Ki", "setting": "[3]", "value": 0.95, "unit": "nM"}]}, {"smiles": "CC[C@]1(C(=O)NCCCc2ccccc2)C(C)C1(Cl)Cl", "note": "(stereo not given in full)", "values": [{"measurement": "ED90", "setting": "[1]", "value": 30, "unit": "mg/L"}, {"measurement": "Ki", "setting": "[2]", "value": 1.9, "unit": "nM"}, {"measurement": "Adjusted Ki", "setting": "[3]", "value": 0.96, "unit": "nM"}]}, {"smiles": "C[C@@H](COc1cc(F)ccc1F)NC(=O)[C@H](C#N)C(C)(C)C", "values": [{"measurement": "ED90", "setting": "[1]", "value": "> 200", "unit": "mg/L"}, {"measurement": "Ki", "setting": "[2]", "value": 97, "unit": "nM"}, {"measurement": "Adjusted Ki", "setting": "[3]", "value": 97, "unit": "nM"}]}, {"smiles": "C[C@H](COc1ccccc1F)NC(=O)[C@@H](C#N)C(C)(C)C", "values": [{"measurement": "ED90", "setting": "[1]", "value": 25, "unit": "mg/L"}, {"measurement": "Ki", "setting": "[2]", "value": 0.08, "unit": "nM"}, {"measurement": "Adjusted Ki", "setting": "[3]", "value": 0.08, "unit": "nM"}]}, {"smiles": "C[C@H](COc1cccc(F)c1)NC(=O)[C@@H](C#N)C(C)(C)C", "values": [{"measurement": "ED90", "setting": "[1]", "value": 25, "unit": "mg/L"}, {"measurement": "Ki", "setting": "[2]", "value": 0.24, "unit": "nM"}, {"measurement": "Adjusted Ki", "setting": "[3]", "value": 0.24, "unit": "nM"}]}, {"smiles": "CC[C@]1(C(=O)N[C@H](C)COc2cc(F)ccc2F)C(C)C1(Cl)Cl", "note": "(stereo not given in full)", "values": [{"measurement": "ED90", "setting": "[1]", "value": 6, "unit": "mg/L"}, {"measurement": "Ki", "setting": "[2]", "value": 0.085, "unit": "nM"}, {"measurement": "Adjusted Ki", "setting": "[3]", "value": 0.042, "unit": "nM"}]}, {"smiles": "C[C@H](COc1ccccc1)NC(=O)[C@@H](C#N)C(C)(C)C", "note": "(stereo in doubt; 6e) [listing 2 of 2 here]", "values": [{"measurement": "Ki", "setting": "[2]", "value": 1.3, "unit": "nM"}, {"measurement": "Adjusted Ki", "setting": "[3]", "value": 0.66, "unit": "nM"}]}, {"smiles": "C[C@H](COc1cc(F)ccc1F)NC(=O)C(C#N)C(C)(C)C", "note": "(stereo not given in full)", "values": [{"measurement": "ED90", "setting": "[1]", "value": 6.2, "unit": "mg/L"}, {"measurement": "Ki", "setting": "[2]", "value": 0.042, "unit": "nM"}, {"measurement": "Adjusted Ki", "setting": "[3]", "value": 0.021, "unit": "nM"}]}, {"smiles": "C[C@@H](COc1cc(F)ccc1F)NC(=O)[C@@H](C#N)C(C)(C)C", "values": [{"measurement": "ED90", "setting": "[1]", "value": "> 200", "unit": "mg/L"}, {"measurement": "Ki", "setting": "[2]", "value": 7.7, "unit": "nM"}, {"measurement": "Adjusted Ki", "setting": "[3]", "value": 7.7, "unit": "nM"}]}, {"smiles": "CC(CCc1ccccc1)NC(=O)C(C#N)C(C)(C)C", "note": "(stereo not given)", "values": [{"measurement": "ED90", "setting": "[1]", "value": "> 200", "unit": "mg/L"}, {"measurement": "Ki", "setting": "[2]", "value": 7.2, "unit": "nM"}, {"measurement": "Adjusted Ki", "setting": "[3]", "value": 1.8, "unit": "nM"}]}, {"smiles": "CC[C@]1(C(=O)NC(C)COc2ccccc2)C(C)C1(Cl)Cl", "note": "(stereo not given in full)", "values": [{"measurement": "ED90", "setting": "[1]", "value": 50, "unit": "mg/L"}, {"measurement": "Ki", "setting": "[2]", "value": 0.38, "unit": "nM"}, {"measurement": "Adjusted Ki", "setting": "[3]", "value": 0.094, "unit": "nM"}]}, {"smiles": "CC(COc1ccccc1)NC(=O)C(C#N)C(C)(C)C", "note": "(stereo not given)", "values": [{"measurement": "ED90", "setting": "[1]", "value": 200, "unit": "mg/L"}, {"measurement": "Ki", "setting": "[2]", "value": 2.8, "unit": "nM"}, {"measurement": "Adjusted Ki", "setting": "[3]", "value": 0.7, "unit": "nM"}]}, {"smiles": "CC[C@]1(C(=O)N[C@@H](C)COc2cc(F)ccc2F)C(C)C1(Cl)Cl", "note": "(stereo not given in full)", "values": [{"measurement": "ED90", "setting": "[1]", "value": 100, "unit": "mg/L"}, {"measurement": "Ki", "setting": "[2]", "value": 33, "unit": "nM"}, {"measurement": "Adjusted Ki", "setting": "[3]", "value": 16, "unit": "nM"}]}]}
